Laboratory results: ChEMBL document CHEMBL1201862, “PubChem BioAssay data set” (2004)
Blank lines part the entries; values can stand above or below the compound they belong to. The source made the active and inactive calls.

Assays:
[1] = insulin promoter down-regulators in MIN6 cells, imaging, high-content screening, mouse beta cells (AID 1628); format: functional
[2] = molecular target: T1, Protein Tat (Human immunodeficiency virus type 1 group M subtype B (isolate HXB2)(HIV-1), UniProt P04608); format: functional;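 further: tat binding to TAR RNA read out by fluorescence polarization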
T1 sequence (P04608 whole entry): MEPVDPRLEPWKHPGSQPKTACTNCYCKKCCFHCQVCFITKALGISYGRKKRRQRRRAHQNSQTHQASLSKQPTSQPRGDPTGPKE

[3] = molecular target: T2, Mannose-6-phosphate isomerase (Homo sapiens, UniProt P34949); assay: human PMI inhibitors, high substrate, primary screen, biochemical, fluorescence intensity, high mannose 6-phosphate (AID 1220)
T2 sequence (P34949 whole entry): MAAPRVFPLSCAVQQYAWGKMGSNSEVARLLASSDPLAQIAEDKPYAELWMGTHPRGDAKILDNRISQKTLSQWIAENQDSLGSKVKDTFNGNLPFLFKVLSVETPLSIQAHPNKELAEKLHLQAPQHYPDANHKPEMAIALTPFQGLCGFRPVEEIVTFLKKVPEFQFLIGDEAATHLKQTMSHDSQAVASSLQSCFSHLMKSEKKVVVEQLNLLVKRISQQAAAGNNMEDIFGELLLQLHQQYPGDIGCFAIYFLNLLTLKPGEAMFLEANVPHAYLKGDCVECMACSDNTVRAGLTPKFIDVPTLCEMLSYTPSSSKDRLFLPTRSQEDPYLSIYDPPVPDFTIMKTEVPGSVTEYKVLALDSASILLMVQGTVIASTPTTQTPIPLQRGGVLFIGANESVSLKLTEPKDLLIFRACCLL

[4] = cytotoxicity in MIN6 insulinoma cells, dose response, cytotoxicity control, cell-based, mouse insulinoma (AID 2122); format: functional;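 further: confirmatory high-throughput counterscreen run to flag cytotoxic compounds; mouse MIN-6 beta cells carrying an insulin promoter eGFP reporter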
[5] = molecular target: T3, Calpain-2 catalytic subunit (Sus scrofa, UniProt P43367); assay: pig calpain II inhibitor potency, dose response, biochemical, fluorogenic peptide substrate (AID 1420); format: functional
T3 sequence (P43367 whole entry): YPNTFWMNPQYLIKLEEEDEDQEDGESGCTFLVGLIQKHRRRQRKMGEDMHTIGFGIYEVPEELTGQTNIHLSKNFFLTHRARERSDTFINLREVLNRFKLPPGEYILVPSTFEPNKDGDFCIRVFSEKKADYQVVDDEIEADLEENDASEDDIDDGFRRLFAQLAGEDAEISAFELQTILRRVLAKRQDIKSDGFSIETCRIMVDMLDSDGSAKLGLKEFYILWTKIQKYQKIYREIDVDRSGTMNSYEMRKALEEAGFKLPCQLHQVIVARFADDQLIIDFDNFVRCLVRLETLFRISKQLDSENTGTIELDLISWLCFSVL

[6] = THP-1 cell cytotoxicity, dose response, cytotoxicity control for Vif-APOBEC3G degradation inhibitor project, THP-1 cells (AID 1117359); format: functional; conditions: Human immunodeficiency virus 1, THP-1
[7] = molecular target: Glycogen synthase kinase-3 alpha (Homo sapiens, UniProt P49840); format: functional;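 further: GSK3A result taken from a broad kinome-wide kinase panel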
[8] = molecular target: Proto-oncogene tyrosine-protein kinase receptor Ret (Homo sapiens, UniProt P07949); format: functional;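 further: measured within a kinome-wide profiling panel, RET as the panel member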
Chain of Proto-oncogene tyrosine-protein kinase receptor Ret (P07949 whole entry): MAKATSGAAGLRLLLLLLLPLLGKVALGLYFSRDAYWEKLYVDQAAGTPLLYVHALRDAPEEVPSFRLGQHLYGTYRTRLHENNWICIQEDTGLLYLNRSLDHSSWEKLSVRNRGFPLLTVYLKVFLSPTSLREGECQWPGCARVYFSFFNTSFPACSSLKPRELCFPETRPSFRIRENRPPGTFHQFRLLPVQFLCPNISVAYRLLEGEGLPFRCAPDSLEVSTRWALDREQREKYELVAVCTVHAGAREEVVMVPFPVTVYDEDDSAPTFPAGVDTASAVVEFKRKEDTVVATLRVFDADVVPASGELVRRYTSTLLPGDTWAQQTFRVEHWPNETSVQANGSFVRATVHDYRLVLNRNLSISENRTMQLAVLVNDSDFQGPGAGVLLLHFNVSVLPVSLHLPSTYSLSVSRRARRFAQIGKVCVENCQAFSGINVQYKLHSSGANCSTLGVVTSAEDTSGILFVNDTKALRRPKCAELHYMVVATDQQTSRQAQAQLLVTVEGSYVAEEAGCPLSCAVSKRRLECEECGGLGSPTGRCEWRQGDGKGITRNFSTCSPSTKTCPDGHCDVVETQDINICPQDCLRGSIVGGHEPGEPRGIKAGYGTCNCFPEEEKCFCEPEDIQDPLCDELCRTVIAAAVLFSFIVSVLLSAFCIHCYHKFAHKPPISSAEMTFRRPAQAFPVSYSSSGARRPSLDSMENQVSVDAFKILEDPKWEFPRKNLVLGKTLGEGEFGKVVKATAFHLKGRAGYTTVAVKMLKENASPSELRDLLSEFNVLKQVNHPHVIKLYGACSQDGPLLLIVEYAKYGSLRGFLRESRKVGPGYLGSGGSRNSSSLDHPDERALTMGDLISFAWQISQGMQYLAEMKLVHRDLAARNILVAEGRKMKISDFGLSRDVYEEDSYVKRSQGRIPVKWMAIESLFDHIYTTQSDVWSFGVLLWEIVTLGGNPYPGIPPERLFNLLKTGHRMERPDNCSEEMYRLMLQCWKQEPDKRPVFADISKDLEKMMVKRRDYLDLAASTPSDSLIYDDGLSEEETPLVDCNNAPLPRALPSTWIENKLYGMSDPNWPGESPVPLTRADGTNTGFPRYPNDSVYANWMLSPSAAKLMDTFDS

[9] = molecular target: RAC-gamma serine/threonine-protein kinase (Homo sapiens, UniProt Q9Y243); format: functional
[10] = molecular target: Cyclin-dependent kinase 7 (Homo sapiens, UniProt P50613); format: functional;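 further: value comes from a kinome-wide kinase profiling panel in which CDK7 is one member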
[11] = molecular target: Testis-specific serine/threonine-protein kinase 1 (Homo sapiens, UniProt Q9BXA7); format: functional
[12] = molecular target: RAC-alpha serine/threonine-protein kinase (Homo sapiens, UniProt P31749); format: functional;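 further: AKT1 affinity measured as one member of a kinome-wide kinase profiling panel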
[13] = molecular target: MAP/microtubule affinity-regulating kinase 4 (Homo sapiens, UniProt Q96L34); assay: Navigating the Kinome. Panel member name: MARK4; format: functional
Chain of MAP/microtubule affinity-regulating kinase 4 (Q96L34 whole entry): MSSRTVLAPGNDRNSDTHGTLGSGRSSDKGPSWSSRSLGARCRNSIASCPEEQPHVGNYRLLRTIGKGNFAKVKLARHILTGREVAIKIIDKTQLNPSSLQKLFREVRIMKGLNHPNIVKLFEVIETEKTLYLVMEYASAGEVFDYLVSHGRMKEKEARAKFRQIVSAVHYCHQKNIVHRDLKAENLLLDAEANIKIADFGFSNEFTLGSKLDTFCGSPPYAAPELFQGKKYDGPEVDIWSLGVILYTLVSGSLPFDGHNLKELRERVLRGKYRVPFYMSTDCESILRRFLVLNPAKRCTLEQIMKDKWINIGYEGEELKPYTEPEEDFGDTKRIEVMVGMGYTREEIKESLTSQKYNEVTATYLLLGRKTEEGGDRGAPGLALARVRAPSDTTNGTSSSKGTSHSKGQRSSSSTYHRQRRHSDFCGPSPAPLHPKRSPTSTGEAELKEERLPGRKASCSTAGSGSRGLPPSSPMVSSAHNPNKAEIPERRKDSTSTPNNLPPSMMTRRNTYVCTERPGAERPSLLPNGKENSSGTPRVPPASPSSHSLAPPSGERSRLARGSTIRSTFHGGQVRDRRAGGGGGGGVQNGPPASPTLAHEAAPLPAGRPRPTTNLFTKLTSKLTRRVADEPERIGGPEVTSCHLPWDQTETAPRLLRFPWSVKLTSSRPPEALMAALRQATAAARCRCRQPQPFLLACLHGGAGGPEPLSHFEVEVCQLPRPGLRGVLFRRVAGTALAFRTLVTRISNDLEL

[14] = molecular target: Casein kinase II subunit alpha (Homo sapiens, UniProt P68400); format: functional
[15] = molecular target: Serine/threonine-protein kinase D2 (Homo sapiens, UniProt Q9BZL6); format: functional;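 further: measured against PRKD2 as one member of a kinome-wide kinase profiling panel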
[16] = molecular target: Cyclin-dependent kinase 2 (Homo sapiens, UniProt P24941); format: functional;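 further: CDK2 measured as one member of a broad kinome profiling panel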
[17] = molecular target: Hepatocyte growth factor receptor (Homo sapiens, UniProt P08581); format: functional;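 further: kinase panel profiling across the kinome, with MET as the panel member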
Chain of Hepatocyte growth factor receptor (P08581 whole entry): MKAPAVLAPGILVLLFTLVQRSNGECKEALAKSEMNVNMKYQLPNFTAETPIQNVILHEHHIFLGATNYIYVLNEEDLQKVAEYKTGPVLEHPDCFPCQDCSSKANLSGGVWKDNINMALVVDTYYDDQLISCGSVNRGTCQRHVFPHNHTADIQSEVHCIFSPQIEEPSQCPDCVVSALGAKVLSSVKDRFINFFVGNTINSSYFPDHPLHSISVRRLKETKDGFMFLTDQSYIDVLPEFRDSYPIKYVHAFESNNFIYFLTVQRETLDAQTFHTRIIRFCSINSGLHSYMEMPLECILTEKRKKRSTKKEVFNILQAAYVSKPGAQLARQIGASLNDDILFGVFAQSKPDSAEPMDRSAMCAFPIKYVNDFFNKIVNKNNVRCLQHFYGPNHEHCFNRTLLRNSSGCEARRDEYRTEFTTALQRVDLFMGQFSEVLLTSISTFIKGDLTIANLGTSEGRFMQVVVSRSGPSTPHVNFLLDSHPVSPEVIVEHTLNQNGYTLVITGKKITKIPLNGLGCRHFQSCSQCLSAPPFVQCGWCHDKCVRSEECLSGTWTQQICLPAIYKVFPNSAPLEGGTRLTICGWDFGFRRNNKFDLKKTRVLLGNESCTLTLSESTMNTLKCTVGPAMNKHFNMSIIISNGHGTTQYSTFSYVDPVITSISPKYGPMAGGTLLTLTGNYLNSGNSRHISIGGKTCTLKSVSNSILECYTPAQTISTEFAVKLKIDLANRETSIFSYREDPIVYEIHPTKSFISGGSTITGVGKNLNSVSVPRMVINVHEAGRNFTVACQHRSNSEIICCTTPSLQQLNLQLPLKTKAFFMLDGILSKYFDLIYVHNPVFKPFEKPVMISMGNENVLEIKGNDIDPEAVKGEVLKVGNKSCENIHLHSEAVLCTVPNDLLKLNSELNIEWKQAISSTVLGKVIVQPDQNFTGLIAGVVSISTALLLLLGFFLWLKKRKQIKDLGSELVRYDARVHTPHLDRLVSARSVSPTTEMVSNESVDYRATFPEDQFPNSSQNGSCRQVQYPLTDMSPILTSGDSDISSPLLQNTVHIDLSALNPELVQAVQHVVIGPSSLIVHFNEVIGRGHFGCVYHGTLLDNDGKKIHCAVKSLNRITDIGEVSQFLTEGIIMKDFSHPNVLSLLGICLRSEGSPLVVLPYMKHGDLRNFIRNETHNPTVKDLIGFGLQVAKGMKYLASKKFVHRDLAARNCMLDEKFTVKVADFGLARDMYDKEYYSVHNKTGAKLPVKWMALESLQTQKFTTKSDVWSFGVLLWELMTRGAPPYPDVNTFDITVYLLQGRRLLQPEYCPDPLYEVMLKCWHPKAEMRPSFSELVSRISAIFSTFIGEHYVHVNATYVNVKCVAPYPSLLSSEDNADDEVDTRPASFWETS

[18] = molecular target: Aurora kinase B (Homo sapiens, UniProt Q96GD4); format: functional
[19] = molecular target: Fibroblast growth factor receptor 1 (Homo sapiens, UniProt P11362); format: functional
[20] = molecular target: Casein kinase I isoform gamma-1 (Homo sapiens, UniProt Q9HCP0); format: functional;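 further: measured as the CSNK1G1 member of a kinome profiling panel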
[21] = molecular target: Serine/threonine-protein kinase Chk1 (Homo sapiens, UniProt O14757); format: functional;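 further: measured as one member of a kinome-wide kinase profiling panel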
Chain of Serine/threonine-protein kinase Chk1 (O14757 whole entry): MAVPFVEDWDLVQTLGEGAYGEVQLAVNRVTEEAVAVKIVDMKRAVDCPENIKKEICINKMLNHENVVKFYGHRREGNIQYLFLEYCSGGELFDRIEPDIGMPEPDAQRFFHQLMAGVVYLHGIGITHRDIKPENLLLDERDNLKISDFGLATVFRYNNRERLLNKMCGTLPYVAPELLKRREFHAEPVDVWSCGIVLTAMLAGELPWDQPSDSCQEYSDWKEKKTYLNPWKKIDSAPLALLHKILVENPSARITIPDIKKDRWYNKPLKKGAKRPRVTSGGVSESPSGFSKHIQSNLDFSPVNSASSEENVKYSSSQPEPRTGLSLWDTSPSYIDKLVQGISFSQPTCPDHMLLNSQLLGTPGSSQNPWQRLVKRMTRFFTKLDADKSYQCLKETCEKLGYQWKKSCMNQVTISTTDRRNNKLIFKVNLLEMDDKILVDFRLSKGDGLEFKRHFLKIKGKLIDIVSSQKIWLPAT

[22] = molecular target: STE20-like serine/threonine-protein kinase (Homo sapiens, UniProt Q9H2G2); format: functional
Chain of STE20-like serine/threonine-protein kinase (Q9H2G2 whole entry): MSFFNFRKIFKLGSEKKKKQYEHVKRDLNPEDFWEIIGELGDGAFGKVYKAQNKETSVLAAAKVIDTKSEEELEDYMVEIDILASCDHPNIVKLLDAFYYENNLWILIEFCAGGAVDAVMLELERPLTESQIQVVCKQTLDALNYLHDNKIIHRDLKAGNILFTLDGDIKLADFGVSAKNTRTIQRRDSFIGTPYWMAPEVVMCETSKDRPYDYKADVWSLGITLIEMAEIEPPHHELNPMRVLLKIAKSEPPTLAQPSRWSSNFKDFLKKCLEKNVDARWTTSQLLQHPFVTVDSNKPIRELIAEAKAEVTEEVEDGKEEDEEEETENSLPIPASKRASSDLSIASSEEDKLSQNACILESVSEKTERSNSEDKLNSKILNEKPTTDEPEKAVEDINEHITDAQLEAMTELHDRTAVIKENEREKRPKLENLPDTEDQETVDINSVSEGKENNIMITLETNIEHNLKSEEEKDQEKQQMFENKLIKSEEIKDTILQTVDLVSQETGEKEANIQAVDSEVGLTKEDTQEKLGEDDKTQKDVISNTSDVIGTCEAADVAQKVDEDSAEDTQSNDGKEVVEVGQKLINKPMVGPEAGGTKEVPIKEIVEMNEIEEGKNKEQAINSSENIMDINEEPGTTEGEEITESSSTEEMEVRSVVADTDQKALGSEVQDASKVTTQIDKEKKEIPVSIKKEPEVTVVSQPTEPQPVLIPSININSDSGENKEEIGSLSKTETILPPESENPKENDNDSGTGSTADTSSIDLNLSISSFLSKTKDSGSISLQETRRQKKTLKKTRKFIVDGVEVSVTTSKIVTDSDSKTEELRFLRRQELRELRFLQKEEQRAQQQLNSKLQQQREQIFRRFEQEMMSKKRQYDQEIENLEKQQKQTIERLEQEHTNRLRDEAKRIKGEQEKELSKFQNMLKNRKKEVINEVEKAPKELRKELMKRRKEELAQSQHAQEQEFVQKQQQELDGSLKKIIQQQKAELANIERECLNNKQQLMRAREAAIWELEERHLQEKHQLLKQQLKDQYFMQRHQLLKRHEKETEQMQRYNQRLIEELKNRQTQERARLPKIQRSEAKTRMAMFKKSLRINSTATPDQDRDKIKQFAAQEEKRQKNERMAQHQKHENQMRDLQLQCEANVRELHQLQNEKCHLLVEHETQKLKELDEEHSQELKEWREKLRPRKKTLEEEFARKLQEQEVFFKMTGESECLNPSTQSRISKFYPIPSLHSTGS

Structure (SMILES): COCC/N=c1\scc(-c2cccs2)n1/N=C/c1ccc(O)c(O)c1O
IC50 [1]: > 16 µM (inactive)
IC50 [2]: > 100 µM (inconclusive)
IC50 [3]: 23.8 µM (active)
IC50 [4]: > 16 µM (inactive)
IC50 [5]: 38.9 µM (not active)
CC50 [6]: 16.5 µM (active)

Ki [7]: 0.0316 µM (active)
Ki [8]: > 2.51 µM (inactive)
Ki [9]: > 6.31 µM (inactive)
Ki [10]: > 6.31 µM (inactive)
Ki [11]: > 1 µM (inactive)
Ki [12]: > 5.01 µM (inactive)
Ki [13]: 0.398 µM (active)
Ki [14]: 0.1 µM (active)
Ki [15]: 0.316 µM (active)
Ki [16]: 0.251 µM (active)
Ki [17]: > 2 µM (inactive)
Ki [18]: 0.316 µM (active)
Ki [19]: > 2 µM (inactive)
Ki [20]: 3.16 µM (active)
Ki [21]: 1 µM (active)
Ki [22]: 0.126 µM (active)
Structure (SMILES): OC1CCC(Nc2cc(Cl)nc(-c3c[nH]c4ncccc34)n2)CC1 (configuration not stated)
